assay: recombinant barcode read abundance after kanamycin selection (control-corrected) (log10(CPM+1)); higher = more efficient recombination; sequences stand for … in AGTGCAGAGAAAATCGGCCAGTTTTCTCTGCCTGCAGTCCGCATGCCGT…AGATTTATGCAGCGGACTGCCTTTCTCCCAAAGTGATAAACCGGACAGTATCATGGACCGGTTTTCCCGGTAATCCGTATTTGCAAGGTTGGTTTCACT; site = the 11-nt target
Summary of the method: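 A vector carrying a T7-inducible recombinase and the last 73 bp of the bridge RNA received, by Gibson cloning, oligos encoding a promoter, target, barcode and the first 104 bridge RNA bases under J23119. The pooled constructs entered E. coli together with a donor plasmid by electroporation. Selection used chloramphenicol/ampicillin/kanamycin with 0.1 mM IPTG, with chloramphenicol/ampicillin LB agar as the control, each in two replicates. Recombination efficiency is the averaged, control-corrected counts-per-million of barcodes at recombinant junctions, reported as log10(CPM+1).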
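Further: IS621 recombinase and bridge RNA in Escherichia coli cells.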

Sequence | recombinant barcode read abundance (log10)
TGTAAGGCTTGGGTTCTAACCTGTTGCTT (site TGTAAGGCTAA) | 0.27
TGTAATCCTTGGGTTCTAACCTGTTGCCT (site TGTAATACTAG) | 0.327
TGTAATCCTTGGGTTCTAACCTGTTGCCT (site TGTAATCCTAG) | 0.025
TGTAATCCTTGGGTTCTAACCTGTTGCCT (site TGTAATGCTAG) | 0.032
TGTAATCCTTGGGTTCTAACCTGTTGCCT (site TGTAATTCTAG) | 0.0105
TGTAATGCTTGGGTTCTAACCTGTTGCCT (site TGTAATACTAG) | 0.0123
TGTAATGCTTGGGTTCTAACCTGTTGCCT (site TGTAATCCTAG) | 0.181
TGTAATGCTTGGGTTCTAACCTGTTGCCT (site TGTAATGCTAG) | 0.912
TGTAATGCTTGGGTTCTAACCTGTTGCCT (site TGTAATTCTAG) | 0.181
TGTAATTCTTGGGTTCTAACCTGTTGCCT (site TGTAATACTAG) | 0.139
TGTAATTCTTGGGTTCTAACCTGTTGCCT (site TGTAATCCTAG) | 0.0849
TGTAATTCTTGGGTTCTAACCTGTTGCCT (site TGTAATGCTAG) | 0
TGTAATTCTTGGGTTCTAACCTGTTGCCT (site TGTAATTCTAG) | 0.18
TGTCAAACTTGGGTTCTAACCTGTTGCGT (site TGTCAAACTAC) | 0.838
TGTCAAACTTGGGTTCTAACCTGTTGCGT (site TGTCAACCTAC) | 0.0278
TGTCGAGCTTGGGTTCTAACCTGTTGCCG (site TGTAGAGCTCG) | 0.0366
TGTCGAGCTTGGGTTCTAACCTGTTGCCG (site TGTCGAGCTCG) | 0.107
TGTCGAGCTTGGGTTCTAACCTGTTGCCG (site TGTGGAGCTCG) | 0.0604
TGTCGAGCTTGGGTTCTAACCTGTTGCCG (site TGTTGAGCTCG) | 0.106
TGTCGCTCTTGGGTTCTAACCTGTTGCCT (site TGACGCTCTAG) | 0.0464
TGTCGCTCTTGGGTTCTAACCTGTTGCCT (site TGCCGCTCTAG) | 0.0379
TGTCGCTCTTGGGTTCTAACCTGTTGCCT (site TGGCGCTCTAG) | 0.129
TGTCGCTCTTGGGTTCTAACCTGTTGCCT (site TGTCGCTCTAG) | 1.1
TGTCGGACTTGGGTTCTAACCTGTTGCAA (site TGTCGGACTAT) | 0.146
TGTCGGACTTGGGTTCTAACCTGTTGCAA (site TGTCGGACTCT) | 0.149
TGTCGGACTTGGGTTCTAACCTGTTGCAA (site TGTCGGACTGT) | 0.0423

Sequence | recombinant barcode read abundance (log10)
TGTCGGACTTGGGTTCTAACCTGTTGCAA (site TGTCGGACTTT) | 0.421
TGTCGGACTTGGGTTCTAACCTGTTGCAT (site TGTCGGACTAT) | 1.32
TGTCGGACTTGGGTTCTAACCTGTTGCAT (site TGTCGGACTCT) | 0.18
TGTCGGACTTGGGTTCTAACCTGTTGCAT (site TGTCGGACTGT) | 0.0199
TGTCGGACTTGGGTTCTAACCTGTTGCAT (site TGTCGGACTTT) | 0.0384
TGTCTACCTTGGGTTCTAACCTGTTGCTA (site TGTCTACCTTA) | 0.103
TGTCTACCTTGGGTTCTAACCTGTTGCTA (site TGTCTCCCTAA) | 0.209
TGTCTCCCTTGGGTTCTAACCTGTTGCGT (site GAAGAGGCTTG) | 0.154
TGTCTCCCTTGGGTTCTAACCTGTTGCGT (site TGTCTCCCTAC) | 1.04
TGTCTGTCTTGGGTTCTAACCTGTTGCTT (site TGTCTGTCTAA) | 0.186
TGTCTGTCTTGGGTTCTAACCTGTTGCTT (site TGTCTGTCTTA) | 0.0372
TGTGACTCTTGGGTTCTAACCTGTTGCCT (site TGAGACTCTAG) | 0.088
TGTGACTCTTGGGTTCTAACCTGTTGCCT (site TGCGACTCTAG) | 0.0199
TGTGACTCTTGGGTTCTAACCTGTTGCCT (site TGGGACTCTAG) | 0.0547
TGTGACTCTTGGGTTCTAACCTGTTGCCT (site TGTGACTCTAG) | 0.912
TGTGAGCCTTGGGTTCTAACCTGTTGCGA (site CTGCGCTCTAT) | 0.0373
TGTGAGCCTTGGGTTCTAACCTGTTGCGA (site TGTGAGCCTTC) | 0.748
TGTGCACCTTGGGTTCTAACCTGTTGCAC (site TGTGCACCTGT) | 0.32
TGTGCACCTTGGGTTCTAACCTGTTGCAC (site TGTGCTCCTCT) | 0.0746
TGTGCGACTTGGGTTCTAACCTGTTGCAC (site TGAGCTACTGT) | 0.0835
TGTGCGACTTGGGTTCTAACCTGTTGCAC (site TGTGCGACTGT) | 0.0665
TGTGCGTCTTGGGTTCTAACCTGTTGCCT (site AGTGCGTCTAG) | 0.0921
TGTGCGTCTTGGGTTCTAACCTGTTGCCT (site CGTGCGTCTAG) | 0.136
TGTGCGTCTTGGGTTCTAACCTGTTGCCT (site GGTGCGTCTAG) | 0.0172
TGTGCGTCTTGGGTTCTAACCTGTTGCCT (site TGTGCGTCTAG) | 0.801
TGTGCTACTTGGGTTCTAACCTGTTGCAC (site GACCTATCTAG) | 0.327

Sequence | recombinant barcode read abundance (log10)
TGTGCTACTTGGGTTCTAACCTGTTGCAC (site TGTGCTACTGT) | 0.0867
TGTGCTCCTTGGGTTCTAACCTGTTGCAG (site TGTGCACCTGT) | 0.294
TGTGCTCCTTGGGTTCTAACCTGTTGCAG (site TGTGCTCCTCT) | 0.113
TGTGTCTCTTGGGTTCTAACCTGTTGCGT (site TCTGTCTCTAG) | 0.363
TGTGTCTCTTGGGTTCTAACCTGTTGCGT (site TGTGTCTCTAC) | 2.63
TGTTGAGCTTGGGTTCTAACCTGTTGCCG (site TGTAGAGCTCG) | 0.09
TGTTGAGCTTGGGTTCTAACCTGTTGCCG (site TGTCGAGCTCG) | 0.192
TGTTGAGCTTGGGTTCTAACCTGTTGCCG (site TGTGGAGCTCG) | 0.258
TGTTGAGCTTGGGTTCTAACCTGTTGCCG (site TGTTGAGCTCG) | 0.554
TGTTGTTCTTGGGTTCTAACCTGTTGCCT (site GGTTGTTCTAG) | 0.0142
TGTTGTTCTTGGGTTCTAACCTGTTGCCT (site TGTTGTTCTAG) | 0.0851
TGTTTAACTTGGGTTCTAACCTGTTGCCT (site TGGTTACCTAG) | 0.126
TGTTTAACTTGGGTTCTAACCTGTTGCCT (site TGTTTAACTAG) | 0.0368
TTAAAACCTTGGGTTCTAACCTGTTGCCT (site ATAAAACCTAG) | 0.0421
TTAAAACCTTGGGTTCTAACCTGTTGCCT (site CTAAAACCTAG) | 0.0966
TTAAAACCTTGGGTTCTAACCTGTTGCCT (site GTAAAACCTAG) | 0.06
TTAAAACCTTGGGTTCTAACCTGTTGCCT (site TTAAAACCTAG) | 0.751
TTAACTACTTGGGTTCTAACCTGTTGCTT (site TTAACTACTAA) | 0.0821
TTAACTACTTGGGTTCTAACCTGTTGCTT (site TTAACTACTCA) | 0.233
TTAACTACTTGGGTTCTAACCTGTTGCTT (site TTAACTACTGA) | 0.294
TTAACTACTTGGGTTCTAACCTGTTGCTT (site TTAACTACTTA) | 0.0225
TTAAGCCCTTGGGTTCTAACCTGTTGCCT (site TTAAGACCTAG) | 0.288
TTAAGCCCTTGGGTTCTAACCTGTTGCCT (site TTAAGCCCTAG) | 1.41
TTAAGCTCTTGGGTTCTAACCTGTTGCCT (site ATAAGCTCTAG) | 0.125
TTAAGCTCTTGGGTTCTAACCTGTTGCCT (site CTAAGCTCTAG) | 0.197

From the supplement of paper PMC11208160
